# Tested on: Malassezia furfur
# Assay: comparative corneofungimetry bioassay on human stratum corneum strippings
# Format: cell-based
# Conditions: for Median positive fungal cells# from 20 samples: 9 days at 27° C., neutral red vital stain, counted by mm^2
# [1] = 1% zinc pyrithione water suspension
# [2] = formulated shampoo containing 1% zinc pyrithione
# Procedure: As a more advanced test, “corneofungimetry” was used to evaluate the particles prepared in accordance with the Example and Comparative Examples. This test is a good pre-clinical screening method because it requires growing the Malassezia furfur sp on a substrate that is more representative of its natural environment. Cyanoacrylate is used to harvest a layer of skin, and these skin surface strippings are treated with olive oil to simulate sebum. The prepared skin samples are then treated with the actives under investigation, inoculated with the microorganism of interest and incubated.
# The corneofungimetry bioassay was performed on normal stratum corneum harvested from 20 healthy volunteers using cyanoacrylate adhesive. Samples were dipped into olive oil and stored in a sterile environment for 3 days.
# Malassezia furfur was cultured on MLNA (Modified Leeming and Notman Agar) medium. Suspensions of fungal cells were prepared in physiologic saline (10^4-10^5 cells/ml). Aliquots of 250 μl of these suspensions were deposited onto the stratum corneum samples and incubated under moist conditions at 27° C. for 9 days. Samples were then stained using neutral red as a vital stain identifying living fungi growing on the human stratum corneum. The number of positive fungal cells was counted by mm^2 using computerized image analysis (Analysis Olympus). The medians and ranges were determined. Between-product comparisons were performed using the paired non-parametric Friedman test followed by the Dunn test.
substance,measurement,setting,value
zinc pyrithione [Uncoated],% killing compared to saline control,[1],44%
same,Median positive fungal cells# from 20 samples,[1],451
same,% killing compared to saline control,[2],52%
same,Median positive fungal cells# from 20 samples,[2],363
